ChEMBL document CHEMBL3507680, “University of Dundee, Gates Library screen for HepG2 cell viability”

Assay: Human HepG2 cell viability assay in 384 well format
Type: toxicity, cell-based
Parameters: dose 125 nL, time 70.5 hour; cytotoxicity at 70.5 h: concentration not given beside the values
Conditions: HepG2 cells, read-out: Inhibition

For `CNC(=O)c1ccc(NC(=O)NC(C)CCc2cccn2C)c(C)c1` (centres undefined), the cytotoxicity at 70.5 h was -0.342%.

Compound `Cc1cc(C)n(C2CCCN(C(=O)CN(C)C3CC3)C2)n1` (centres undefined) has a cytotoxicity at 70.5 h of -3.88%.

Compound `CC(C)CCN(C(=O)Nc1cccc(C(=O)N(C)C)c1)C1CC1` has a cytotoxicity at 70.5 h of -7.58%.

`Cc1nnc(C(C)N2CCCN(Cc3noc(C4CC4)n3)CC2)o1` (centres undefined) gave a cytotoxicity at 70.5 h of 13.7%.

With `O=C(Cn1ccc(=O)[nH]c1=O)NCc1cccnc1OCC(F)(F)F` the cytotoxicity at 70.5 h was -10.1%.

For `Cn1cnnc1C1CCCN(c2nc3ccccc3o2)C1` (centres undefined), the cytotoxicity at 70.5 h was 0.708%.

Compound `CC(C)CN(C(=O)Nc1cccc(C(=O)N(C)C)c1)C1CC1` has a cytotoxicity at 70.5 h of -10.3%.

`COc1ccc(OC)c(C(=O)Nc2cccnc2-n2cncn2)c1` gave a cytotoxicity at 70.5 h of -10.9%.

`CC(C)c1ccc(S(=O)(=O)NC2CCN(CC(F)(F)F)C2)cc1` (centres undefined) showed a cytotoxicity at 70.5 h of 16.7%.

Work on `CC(C)c1noc(C(C)N2CCN(Cc3noc(C4CC4)n3)CC2)n1` (centres undefined) yielded a cytotoxicity at 70.5 h of -10.9%.

With `CCN(Cc1ccoc1)C(=O)Nc1ccccc1CN(C)C(C)=O` the cytotoxicity at 70.5 h was 22%.

`CC(C(=O)Nc1cccc(F)c1)N(C)CCN1CCOCC1` (centres undefined) gave a cytotoxicity at 70.5 h of -4.4%.

In the case of `CCCc1cc(N(CCOC)CC(F)F)n2ncnc2n1`, the cytotoxicity at 70.5 h is reported as 18.6%.

For `O=S(=O)(NC1CCN(CC(F)(F)F)C1)c1cc(F)cc(F)c1` (centres undefined), the cytotoxicity at 70.5 h was 12.7%.

For `COCCN(CC(F)F)c1cc(COC)nc2ncnn12`, the cytotoxicity at 70.5 h was -9.69%.

In the case of `CCc1oc(C(=O)OC)cc1Cn1cccc(C(F)(F)F)c1=O`, the cytotoxicity at 70.5 h is reported as -1.62%.

`COC(=O)c1sc(C(NC(=O)c2ccccc2)C2CC2)nc1C` (centres undefined) showed a cytotoxicity at 70.5 h of -3.65%.

`CSc1ncccc1C(=O)NC(C)c1cccc(N2CCOC2=O)c1` (centres undefined) gave a cytotoxicity at 70.5 h of -10.4%.

Work on `CC(C)(C)C(NC(=O)CCS(C)(=O)=O)c1ccc(F)cc1F` (centres undefined) yielded a cytotoxicity at 70.5 h of -6.93%.

In the case of `CC(C)(C)C(NC(=O)CCCS(C)(=O)=O)c1ccc(F)cc1F` (centres undefined), the cytotoxicity at 70.5 h is reported as -0.26%.

In the case of `COc1cccc2c1CCCCN2C(=O)c1oc(C)nc1C`, the cytotoxicity at 70.5 h is reported as 0.154%.

Work on `CC(C)N(CC(=O)Nc1cccc(C#N)c1)C1CC1` yielded a cytotoxicity at 70.5 h of -4.01%.

With `Cc1nc(CN(C)S(=O)(=O)c2ccccc2Br)no1` the cytotoxicity at 70.5 h was -3.75%.

`CCc1noc(C(C)N2CCCN(Cc3noc(C4CC4)n3)CC2)n1` (centres undefined) gave a cytotoxicity at 70.5 h of -13.5%.

`Cc1cnn(CC(C)NCC(=O)Nc2ccc(Cl)cn2)c1` (centres undefined) showed a cytotoxicity at 70.5 h of -2.39%.

`CN(CC(=O)NC(C)(C)C)C(=O)c1cccn1CCc1ccccc1` showed a cytotoxicity at 70.5 h of 5.51%.

Work on `Cc1ccc(-c2csc(-c3cccc(C(=O)O)c3)n2)cc1` yielded a cytotoxicity at 70.5 h of 19.5%.

Work on `COc1ccccc1OCCNC(=O)NCC(C)C` yielded a cytotoxicity at 70.5 h of -12.4%.

`NC(=O)CSc1ccccc1NCc1nc(Cc2ccccc2)no1` gave a cytotoxicity at 70.5 h of -6.14%.

Compound `Cc1cc(CNC(=O)NCC(O)c2cccc(F)c2)no1` (centres undefined) has a cytotoxicity at 70.5 h of -10.8%.

Work on `Cc1ccc(CN2CCC(CNC(=O)Cn3cncn3)CC2)cc1` yielded a cytotoxicity at 70.5 h of -6.33%.

Work on `COc1ccc(CN2CCN(Cc3nccn3C)C(C)C2)cc1F` (centres undefined) yielded a cytotoxicity at 70.5 h of -9.42%.

`CC(C)CC1COCCN1C(=O)Cc1cccs1` (centres undefined) gave a cytotoxicity at 70.5 h of -4.92%.

`CCc1nc(CN(C)C2CCN(Cc3ccc(Cl)s3)C2)no1` (centres undefined) showed a cytotoxicity at 70.5 h of 8.41%.

Work on `Fc1ccc(CNCc2nnc3n2CC(C(F)(F)F)CC3)cc1` (centres undefined) yielded a cytotoxicity at 70.5 h of -13.6%.

Work on `CC(C(=O)Nc1sccc1C(N)=O)N(C)CCOc1ccccc1` (centres undefined) yielded a cytotoxicity at 70.5 h of -20.6%.

Compound `O=C(c1cn(-c2ccccc2C(F)(F)F)nn1)N1CCSCC1` has a cytotoxicity at 70.5 h of -15.5%.

With `Cc1noc(C)c1CCC(=O)N1CCCCC1CNS(C)(=O)=O` (centres undefined) the cytotoxicity at 70.5 h was -7.67%.

`Cc1ccc(C(=O)NCc2cccnc2-n2cncn2)cc1S(C)(=O)=O` gave a cytotoxicity at 70.5 h of 17.5%.

`CCSc1cc(C(=O)NC2CCN(C(=O)c3ccccc3)CC2)ccn1` showed a cytotoxicity at 70.5 h of -17.6%.

`CN(C)c1ccc(C(=O)NCc2cccnc2-n2cncn2)cc1F` showed a cytotoxicity at 70.5 h of -17.5%.

Work on `O=S(=O)(Cc1ccccc1F)N1CCCC1c1nnc2n1CCCCC2` (centres undefined) yielded a cytotoxicity at 70.5 h of -6.25%.

In the case of `O=C(c1cccnc1O)N1CCN(Cc2ccccc2F)CC1`, the cytotoxicity at 70.5 h is reported as 17.4%.

Work on `O=C(c1ccn(-c2ccccc2Cl)n1)N1CCCSCC1` yielded a cytotoxicity at 70.5 h of -3.62%.

In the case of `Cc1cc(C)n(-c2cncc(NCCNS(C)(=O)=O)n2)n1`, the cytotoxicity at 70.5 h is reported as 2.9%.

In the case of `Cc1cc(C)n(-c2cncc(NCCNC(=O)c3cccnc3)n2)n1`, the cytotoxicity at 70.5 h is reported as -3.57%.

For `O=C(c1cn(-c2ccccc2Cl)nn1)N1CCN(CCO)CC1`, the cytotoxicity at 70.5 h was -5.32%.

In the case of `Cc1nc(CN(C)Cc2cc3c(cc2OC(F)F)OCO3)oc1C`, the cytotoxicity at 70.5 h is reported as 4.89%.

`Cc1noc(CCCC(=O)N2CCCCC2CNS(C)(=O)=O)n1` (centres undefined) gave a cytotoxicity at 70.5 h of -9.36%.

`COc1cccc(CCC(=O)N2CCN(Cc3noc(C)n3)CC2)c1` showed a cytotoxicity at 70.5 h of -0.347%.

`CC(C)(C)OC(=O)NCC1CCCCN1Cc1ccncc1` (centres undefined) gave a cytotoxicity at 70.5 h of -1.8%.

Work on `CCn1c(C)nnc1CN(C)C1CCN(Cc2sc(C)nc2C)C1` (centres undefined) yielded a cytotoxicity at 70.5 h of 3.85%.

With `Cc1ccc(F)cc1NC(=O)CNc1cccc2c1CCCC2` the cytotoxicity at 70.5 h was -7.64%.

Compound `Cn1c(Nc2ccc(F)cc2)c(C#N)c(=O)n(C)c1=O` has a cytotoxicity at 70.5 h of -4.76%.

For `COc1cc(Nc2c(C#N)c(=O)n(C)c(=O)n2C)cc(OC)c1`, the cytotoxicity at 70.5 h was -6.16%.

Work on `Cc1ccc(Nc2c(C#N)c(=O)n(C)c(=O)n2C)cc1F` yielded a cytotoxicity at 70.5 h of -4.93%.

Work on `CCC(CNC(=O)NCc1cc[nH]n1)N1CCCC1` (centres undefined) yielded a cytotoxicity at 70.5 h of -4.31%.

Work on `CC(C)(C)OC(=O)NCC1CCCCN1Cc1cccnc1` (centres undefined) yielded a cytotoxicity at 70.5 h of -0.715%.

With `CC1CCCN(C(=O)Cn2cc(I)cn2)C1` (centres undefined) the cytotoxicity at 70.5 h was -3.76%.
